From PubChem BioAssay (NCI)
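Following 48 hours of exposure in 96-well plates, responses at five concentrations were used to interpolate endpoints linearly. Abbreviation: GI50, concentration required for 50% inhibition of growth. TGI denotes the concentration required for complete inhibition of growth.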

Columns and labels:
Experiment in all cases: DTP human tumour cell line panel, 48 h
[1] = tested on: NCI-H23 lung
[2] = tested on: KM20L2 colon
[3] = tested on: HCC-2998 colon
[4] = tested on: OVCAR-3 ovarian
[5] = tested on: A498 renal
[6] = tested on: M19-MEL melanoma
[7] = tested on: M14 melanoma
[8] = tested on: BT-549 breast
[9] = tested on: T-47D breast
[10] = tested on: HS 578T breast
[11] = tested on: ACHN renal

SMILES	TGI [1] [µM]	TGI [2] [µM]	TGI [3] [µM]	TGI [4] [µM]	TGI [5] [µM]	TGI [6] [µM]	TGI [7] [µM]	TGI [8] [µM]	TGI [9] [µM]	TGI [10] [µM]	TGI [11] [µM]	GI50 [1] [µM]	GI50 [3] [µM]	GI50 [4] [µM]	GI50 [8] [µM]	GI50 [5] [µM]	GI50 [9] [µM]	GI50 [10] [µM]	GI50 [11] [µM]	GI50 [7] [µM]
CC(C)=CCC/C(C)=C/CCC1(C)C=Cc2c(c3ccccc3oc2=O)O1 (stereo not drawn)	28.9	34	31.8	32.7	27.1	31.4														
c1ccc2cc3c(cc2c1)OP1(Oc2cccc4cccnc24)(O3)Oc2cc3ccccc3cc2O1	16.9	20.3	27.2	5.45	64.3	38.1														
OC1COC(OCc2ccccc2)C(O)C1O (stereo not drawn)	> 100		> 100	> 100	> 100		> 100	> 100	> 100	> 100	> 100									
O=C(O)C12CC3CC(C1)C2C=C3P(=O)(O)O (stereo not drawn)	> 100	> 100	> 100	> 100		> 100	> 100				> 100									
CC1SC(c2ccc(Cl)cc2)N(CCc2cccs2)C1=O (stereo not drawn)	3.85		3.4	2.74	2.47			2.81	6.64	4.1	4.89	1.48	1.55	1.42	1.49	1.21	1.29	1.53	1.88	
COCCOCOC(C)(C)[C@H](CCO)O[Si](c1ccccc1)(c1ccccc1)C(C)(C)C	35.9	24.4	18.9	22.2	31.6	26.9	21.8				18.9									
Cc1cccc(CNc2ncnc3[nH]ncc23)c1	> 100			> 100	> 100		> 100	> 100	> 100	> 100	> 100									
C=CCNC(=O)CN(CC(=O)OC)C1CCCCC1N(CC(=O)OC)CC(=O)OC (stereo not drawn)	> 100		> 100	> 100	> 100		> 100	> 100	> 100	> 100	> 100									
O=C1c2ccccc2C(=O)c2c1cc1c(c2[N+](=O)[O-])OCO1	8.29		4	4.77	2.38		16.9		6.33	6.02	1.3	2.4	1.5	1.43		0.0824	0.551	2.28	0.248	3.78
Cc1cn(C2CC(O)C(Cn3nncc3Cn3ncc(=O)[nH]c3=O)O2)c(=O)[nH]c1=O (stereo not drawn)	> 100		> 100	> 100	> 100		> 100	> 100	> 100	> 100	> 100									
Nc1n[nH]c(CCCCCCCc2nc(N)n[nH]2)n1	> 100		> 100	> 100	> 100	> 100	> 100				> 100									
COc1cc(C(=O)C2CC3(CCC2(O)c2cc(OC)c(OC)c(OC)c2)CC(=O)Nc2ccccc2C3=O)cc(OC)c1OC (stereo not drawn)	> 100		> 100	> 100	> 100		> 100	> 100	> 100	> 100										
COc1cc(/C=C/C2=C(C#N)C(=O)OC2(C)C)ccc1O	> 100	> 100	> 100	> 100	> 100	> 100					> 100									
Cc1c(C2=NN=C(N=Nc3c(O)cccc3O)/C2=C/c2ccccc2)c(=O)n(-c2ccccc2)n1C	> 100	> 100	> 100	> 100	> 100	> 100														
CC(C)=CC(=O)OC1C2C(C)=CC(O)C(O)C2(C)C2C3(O)OCC24C(CC(=O)OC14)C(C)C3O (stereo not drawn)	0.387	4.57	0.572	0.171	4.07	0.127														
